Assay results as given in ChEMBL document CHEMBL3217738, “Preparation of blood-brain barrier-permeable paclitaxel-carrier conjugate and its chemotherapeutic activity in the mouse glioblastoma model” (Medchemcomm, 2011).
Activity calls are given as the source filed them. No cut-off for these calls is given here.

Key:
[1] = tested on: Kidney; assay: Drug uptake in kidney of C57BL/6 mouse at 115.6 mg/kg, ip after 20 mins by fluorescence microscopy; format: ADME, organism-based; design: dose 115.6 mg/kg, route intraperitoneal; conditions: in vivo
[2] = tested on: Spleen; assay: Drug uptake in spleen of C57BL/6 mouse at 115.6 mg/kg, ip after 20 mins by fluorescence microscopy; format: ADME, organism-based; design: dose 115.6 mg/kg, route intraperitoneal; conditions: in vivo
[3] = tested on: Brain; assay: Drug uptake in brain of C57BL/6 mouse at 115.6 mg/kg, ip after 20 mins by fluorescence microscopy; format: ADME, organism-based; design: dose 115.6 mg/kg, route intraperitoneal; conditions: in vivo
[4] = tested on: Lung; assay: Drug uptake in lung of C57BL/6 mouse at 115.6 mg/kg, ip after 20 mins by fluorescence microscopy; format: ADME, organism-based; design: dose 115.6 mg/kg, route intraperitoneal; conditions: in vivo
[5] = tested on: Liver; assay: Drug uptake in liver of C57BL/6 mouse at 115.6 mg/kg, ip after 20 mins by fluorescence microscopy; format: ADME, organism-based; design: dose 115.6 mg/kg, route intraperitoneal; conditions: in vivo
[6] = tested on: Heart; assay: Drug uptake in heart muscle of C57BL/6 mouse at 115.6 mg/kg, ip after 20 mins by fluorescence microscopy; format: ADME, organism-based, Muscle tissue; design: dose 115.6 mg/kg, route intraperitoneal; conditions: in vivo
[7] = tested on: RAW264.7; assay: Cytotoxicity against mouse RAW264.7 cells assessed as cell viability at 1 uM after 48 hrs by MTT assay relative to control; format: functional; conditions: RAW264.7, 48 h, read-out: Activity
[8] = tested on: HeLa; assay: Cytotoxicity against human HeLa cells assessed as cell viability at 0.1 uM after 48 hrs by MTT assay relative to control; format: functional; conditions: read-out: Activity
[9] = tested on: RAW264.7; assay: Cytotoxicity against mouse RAW264.7 cells assessed as cell viability at 10 uM after 48 hrs by MTT assay relative to control; format: functional; conditions: RAW264.7, 48 h, read-out: Activity
[10] = tested on: U-87MG ATCC; assay: Antitumor activity against human U87MG cells xenografted in mouse assessed as decrease in microvessel density in tumor bed by measuring CD31-positive cells at […] 7.5 mg/kg, po administered twice per week for 2 weeks measured after 4 weeks by immunohistochemical analysis relative to control; format: functional, organism-based
[11] = Cytotoxicity against African green monkey COS7 cells assessed as cell viability at 10 uM after 48 hrs by MTT assay relative to control; format: cell-based, COS-7; conditions: chlorocebus aethiops, read-out: Activity
[12] = Antitumor activity against human U87MG cells xenografted in Balb/c nude mouse assessed as reduction in tumor volume at 7.5 mg/kg, po administered twice per week for 2 weeks measured after 4 weeks (reference value: 25 +/- 2.6 mm3); format: functional, U-87MG ATCC
[13] = tested on: HeLa; assay: Cytotoxicity against human HeLa cells assessed as cell viability at 1 uM after 48 hrs by MTT assay relative to control; format: functional; conditions: read-out: Activity
[14] = tested on: RAW264.7; assay: Cytotoxicity against mouse RAW264.7 cells assessed as cell viability at 0.1 uM after 48 hrs by MTT assay relative to control; format: functional; conditions: RAW264.7, 48 h, read-out: Activity
[15] = Cytotoxicity against African green monkey COS7 cells assessed as cell viability at 0.1 uM after 48 hrs by MTT assay relative to control; format: cell-based, COS-7; conditions: chlorocebus aethiops, read-out: Activity
[16] = Antitumor activity against human U87MG cells xenografted in Balb/c nude mouse orthotopic model assessed as reduction in tumor volume at 3.75 mg/kg, po administered twice per week for 2 weeks measured after 4 weeks (reference value: 25 +/- 2.6 mm3); format: functional, U-87MG ATCC
[17] = tested on: HeLa; assay: Cytotoxicity against human HeLa cells assessed as cell viability at 100 uM after 48 hrs by MTT assay relative to control; format: functional; conditions: read-out: Activity
[18] = Cytotoxicity against African green monkey COS7 cells assessed as cell viability at 100 uM after 48 hrs by MTT assay relative to control; format: cell-based, COS-7; conditions: chlorocebus aethiops, read-out: Activity
[19] = tested on: HeLa; assay: Cytotoxicity against human HeLa cells assessed as cell viability at 10 uM after 48 hrs by MTT assay relative to control; format: functional; conditions: read-out: Activity
[20] = tested on: U-87MG ATCC; assay: Antitumor activity against human U87MG cells xenografted in mouse assessed as tumor growth inhibition by measuring PCNA-positive cells at […] 7.5 mg/kg, po administered twice per week for 2 weeks measured after 4 weeks by immunohistochemical analysis relative to control; format: functional, organism-based
[21] = tested on: U-87 MG; assay: Induction of apoptosis in human U87MG cells xenografted in mouse at 3.75 to 7.5 mg/kg, po administered twice per week for 2 weeks measured after 4 weeks by TUNEL-staining based immunohistochemical analysis relative to control; format: functional, organism-based; conditions: U-87MG ATCC
[22] = tested on: RAW264.7; assay: Cytotoxicity against mouse RAW264.7 cells assessed as cell viability at 100 uM after 48 hrs by MTT assay relative to control; format: functional; conditions: RAW264.7, 48 h, read-out: Activity
[23] = Cytotoxicity against African green monkey COS7 cells assessed as cell viability at 1 uM after 48 hrs by MTT assay relative to control; format: cell-based, COS-7; conditions: chlorocebus aethiops, read-out: Activity

SMILES | viability at 1 µM [7] [%] | viability at 0.1 µM [8] [%] | viability at 10 µM [9] [%] | viability at 48 h, 10 µM [11] [%] | Activity [12] [mm3] | viability at 1 µM [13] [%] | viability at 0.1 µM [14] [%] | viability at 48 h, 0.1 µM [15] [%] | viability at 100 µM [17] [%] | viability at 48 h, 100 µM [18] [%] | viability at 10 µM [19] [%] | viability at 100 µM [22] [%] | viability at 48 h, 1 µM [23] [%] | further results
CC(=O)O[C@H]1C(=O)[C@@]2(C)[C@H]([C@H](OC(=O)c3ccccc3)[C@]3(O)C[C@H](OC(=O)[C@H](OC(=O)CCC(=O)OC[C@H](OC(=O)CCCCCN(CCCNC(=N)N)CCCNC(=N)N)[C@@H](OC(=O)CCCCCN(CCCNC(=N)N)CCCNC(=N)N)[C@H](OC(=O)CCCCCN(CCCNC(=N)N)CCCNC(=N)N)[C@@H](COC(=O)CCCCCNC(=S)Nc4ccc(-c5c6ccc(=O)cc-6oc6cc(O)ccc56)c(C(=O)O)c4)OC(=O)CCCCCN(CCCNC(=N)N)CCCNC(=N)N)[C@@H](NC(=O)c4ccccc4)c4ccccc4)C(C)=C1C3(C)C)[C@]1(OC(C)=O)CO[C@@H]1C[C@@H]2O.Cl | – | – | – | – | – | – | – | – | – | – | – | – | – | Drug uptake [1]: Active; Drug uptake [2]: Active; Drug uptake [3]: Active; Drug uptake [4]: Active; Drug uptake [5]: Active; Drug uptake [6]: Active
CC(=O)O[C@H]1C(=O)[C@@]2(C)[C@H]([C@H](OC(=O)c3ccccc3)[C@]3(O)C[C@H](OC(=O)[C@H](OC(=O)CCC(=O)OC[C@@H](OC(=O)CCCCCN(CCCNC(=N)N)CCCNC(=N)N)[C@@H](OC(=O)CCCCCN(CCCNC(=N)N)CCCNC(=N)N)[C@H](OC(=O)CCCCCN(CCCNC(=N)N)CCCNC(=N)N)[C@H](CO)OC(=O)CCCCCN(CCCNC(=N)N)CCCNC(=N)N)[C@@H](NC(=O)c4ccccc4)c4ccccc4)C(C)=C1C3(C)C)[C@]1(OC(C)=O)CO[C@@H]1C[C@@H]2O.Cl | 111 | 87.4 | 53.4 | 94.5 | 4.7 | 78 | 117 | 96.2 | 3.8 | 20.6 | 83.1 | 2.6 | 92.4 | Activity [10]: Active; Activity [16]: 6.1 mm3; TGI [20]: Active; Activity [21]: Active
CC(=O)O[C@H]1C(=O)[C@@]2(C)[C@H]([C@H](OC(=O)c3ccccc3)[C@]3(O)C[C@H](OC(=O)[C@H](O)[C@@H](NC(=O)c4ccccc4)c4ccccc4)C(C)=C1C3(C)C)[C@]1(OC(C)=O)CO[C@@H]1C[C@@H]2O [PACLITAXEL] | 39.2 | 76.3 | 49.9 | 71.9 | 19.4 | 86.3 | 39.3 | 65.4 | 56.5 | 41.5 | 96.1 | 13.3 | 66.5 | –
